ChEMBL document CHEMBL6121066, “Structure-Activity Relationship Studies of DNA Methyltransferase 1 Monovalent Degraders” (J Med Chem, 2025)
Activity calls are given as the source filed them. The calls are words filed in the database; no cut-off is given here.

Assays:
HCT-116 [1] = assay: Induction of molecular glue effect mediated DNMT1 degradation in human HCT-116 cells assessed as reduction in DNMT1 protein level at 500 nM measured after 24 hrs by Western blot analysis relative to control; type: cell-based; parameters: scale not given: the % may be the effect or the level left
MDA-MB-468 [2] = assay: Effect on DNMT1 mRNA level in human MDA-MB-468 cells at 500 nM incubated for 24 hrs by RT-qPCR analysis; type: functional, cell-based
MDA-MB-468 [3] = assay: Antiproliferative activity against human MDA-MB-468 cells assessed as inhibition of cell growth upto 10 uM incubated for 7 days by CCK8 assay relative to control; type: functional; details: time 7 day, up to 10 µM
[4] = biological target: DNA (cytosine-5)-methyltransferase 3B (Homo sapiens) (UniProt Q9UBC3); assay: Inhibition of human full-length DNMT3B using lambda DNA and SAM as substrate at 1 uM by radioisotope-based MT HotSpot assay relative to control
[5] = biological target: T1, Histone-arginine methyltransferase CARM1 (Homo sapiens) (UniProt Q86X55); assay: Inhibition of human PRMT4 using histone H3 and SAM as substrate at 1 uM by radioisotope-based MT HotSpot assay relative to control
T1 sequence (whole entry): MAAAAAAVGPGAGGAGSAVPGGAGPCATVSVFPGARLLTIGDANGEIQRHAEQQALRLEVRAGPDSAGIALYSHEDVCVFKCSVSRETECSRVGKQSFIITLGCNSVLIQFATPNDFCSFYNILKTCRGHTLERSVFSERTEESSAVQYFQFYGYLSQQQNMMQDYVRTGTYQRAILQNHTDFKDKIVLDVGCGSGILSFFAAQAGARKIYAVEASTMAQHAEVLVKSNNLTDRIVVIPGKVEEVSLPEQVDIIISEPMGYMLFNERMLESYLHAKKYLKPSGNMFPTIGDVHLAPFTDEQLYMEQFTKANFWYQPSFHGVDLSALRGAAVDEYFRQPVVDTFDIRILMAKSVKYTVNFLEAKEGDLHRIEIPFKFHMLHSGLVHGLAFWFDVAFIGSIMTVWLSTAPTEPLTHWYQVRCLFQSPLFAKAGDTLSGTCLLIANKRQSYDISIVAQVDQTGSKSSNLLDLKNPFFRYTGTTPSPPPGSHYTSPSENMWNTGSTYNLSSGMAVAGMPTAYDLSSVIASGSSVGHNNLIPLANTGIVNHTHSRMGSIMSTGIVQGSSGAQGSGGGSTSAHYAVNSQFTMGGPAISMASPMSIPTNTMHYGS

[6] = biological target: Histone-lysine N-methyltransferase EZH2 (Homo sapiens) (UniProt Q15910); assay: Inhibition of human EZH2 using core histone and SAM as substrate at 1 uM by radioisotope-based MT HotSpot assay relative to control
Sequence of Histone-lysine N-methyltransferase EZH2 (Homo sapiens) (Q15910 whole entry, looked up): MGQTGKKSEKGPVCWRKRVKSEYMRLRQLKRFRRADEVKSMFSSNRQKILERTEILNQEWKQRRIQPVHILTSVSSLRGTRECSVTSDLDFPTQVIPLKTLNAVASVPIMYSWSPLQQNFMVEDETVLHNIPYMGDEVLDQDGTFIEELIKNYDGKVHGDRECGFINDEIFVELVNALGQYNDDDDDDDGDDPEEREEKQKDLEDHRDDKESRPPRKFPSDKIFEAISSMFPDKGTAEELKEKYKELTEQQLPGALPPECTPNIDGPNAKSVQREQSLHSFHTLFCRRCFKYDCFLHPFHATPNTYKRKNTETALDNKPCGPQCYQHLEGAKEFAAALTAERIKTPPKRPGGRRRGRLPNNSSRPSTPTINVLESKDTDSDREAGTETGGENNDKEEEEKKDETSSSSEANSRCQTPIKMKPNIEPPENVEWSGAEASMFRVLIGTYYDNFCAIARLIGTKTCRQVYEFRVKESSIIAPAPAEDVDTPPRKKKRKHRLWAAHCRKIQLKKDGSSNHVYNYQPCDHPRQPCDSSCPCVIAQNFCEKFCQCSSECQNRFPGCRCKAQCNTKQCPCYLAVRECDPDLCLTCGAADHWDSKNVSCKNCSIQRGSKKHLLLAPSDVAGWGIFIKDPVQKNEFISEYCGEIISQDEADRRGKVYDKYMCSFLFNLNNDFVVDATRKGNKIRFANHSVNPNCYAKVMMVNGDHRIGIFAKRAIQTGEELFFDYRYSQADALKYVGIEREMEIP

[7] = biological target: T2, Histone-lysine N-methyltransferase EHMT2 (Homo sapiens) (UniProt Q96KQ7); assay: Inhibition of human G9a using histone H3 and SAM as substrate at 1 uM by radioisotope-based MT HotSpot assay relative to control
T2 sequence (whole entry): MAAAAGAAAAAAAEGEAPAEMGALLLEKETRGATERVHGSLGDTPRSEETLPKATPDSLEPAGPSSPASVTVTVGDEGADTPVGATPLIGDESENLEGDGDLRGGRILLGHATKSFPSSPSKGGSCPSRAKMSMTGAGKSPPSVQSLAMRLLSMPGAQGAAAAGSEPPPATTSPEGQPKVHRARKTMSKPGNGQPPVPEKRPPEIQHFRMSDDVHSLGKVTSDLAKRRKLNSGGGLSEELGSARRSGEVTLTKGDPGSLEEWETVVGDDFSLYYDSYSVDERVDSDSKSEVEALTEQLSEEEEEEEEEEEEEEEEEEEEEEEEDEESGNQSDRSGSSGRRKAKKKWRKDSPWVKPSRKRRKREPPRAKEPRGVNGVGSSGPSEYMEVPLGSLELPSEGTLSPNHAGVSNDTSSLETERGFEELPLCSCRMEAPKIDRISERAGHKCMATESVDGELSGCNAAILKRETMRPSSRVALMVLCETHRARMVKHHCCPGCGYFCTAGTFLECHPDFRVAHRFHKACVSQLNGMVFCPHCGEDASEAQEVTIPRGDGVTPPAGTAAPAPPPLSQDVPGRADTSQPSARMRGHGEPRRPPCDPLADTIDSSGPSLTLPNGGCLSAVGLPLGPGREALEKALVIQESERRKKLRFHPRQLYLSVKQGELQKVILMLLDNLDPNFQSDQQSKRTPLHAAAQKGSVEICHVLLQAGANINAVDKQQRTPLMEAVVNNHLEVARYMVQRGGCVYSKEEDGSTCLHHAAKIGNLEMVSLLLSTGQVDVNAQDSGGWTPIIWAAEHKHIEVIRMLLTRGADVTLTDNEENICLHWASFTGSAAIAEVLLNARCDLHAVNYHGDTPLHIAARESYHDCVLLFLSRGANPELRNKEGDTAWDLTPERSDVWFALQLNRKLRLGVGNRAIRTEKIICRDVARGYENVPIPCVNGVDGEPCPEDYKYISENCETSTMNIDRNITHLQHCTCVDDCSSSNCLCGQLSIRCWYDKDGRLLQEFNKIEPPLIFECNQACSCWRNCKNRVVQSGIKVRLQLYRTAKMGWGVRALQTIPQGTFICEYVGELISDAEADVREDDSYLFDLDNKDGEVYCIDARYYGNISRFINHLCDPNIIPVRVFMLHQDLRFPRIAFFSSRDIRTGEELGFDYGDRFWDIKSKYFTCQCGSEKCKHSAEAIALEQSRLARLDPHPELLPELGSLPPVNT

[8] = biological target: Protein arginine N-methyltransferase 6 (Homo sapiens) (UniProt Q96LA8); assay: Inhibition of human PRMT6 using GST-GAR and SAM as substrate at 1 uM by radioisotope-based MT HotSpot assay relative to control
Sequence of Protein arginine N-methyltransferase 6 (Homo sapiens) (Q96LA8 whole entry, looked up): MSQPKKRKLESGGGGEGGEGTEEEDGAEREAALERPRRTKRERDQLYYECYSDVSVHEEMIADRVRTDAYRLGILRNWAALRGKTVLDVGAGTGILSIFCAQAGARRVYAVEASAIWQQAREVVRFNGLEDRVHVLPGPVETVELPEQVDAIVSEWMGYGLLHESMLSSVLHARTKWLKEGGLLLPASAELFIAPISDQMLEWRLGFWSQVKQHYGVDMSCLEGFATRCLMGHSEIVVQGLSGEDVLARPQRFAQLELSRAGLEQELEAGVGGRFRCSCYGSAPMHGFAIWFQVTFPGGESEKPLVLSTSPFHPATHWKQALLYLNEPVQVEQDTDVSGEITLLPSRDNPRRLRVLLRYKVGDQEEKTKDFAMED

HCT-116 [9] = assay: Induction of molecular glue effect mediated DNMT3A degradation in human HCT-116 cells assessed as reduction in DNMT3A protein level at 500 nM incubated for 24 hrs by Western blot analysis; type: cell-based
HCT-116 [10] = assay: Induction of molecular glue effect mediated DNMT1 degradation in human HCT-116 cells assessed as reduction in DNMT1 protein level at 100 nM preincubated with lysosome inhibitor CQ for 2 hrs followed by compound addition and measured after 24 hrs by Western blot analysis; type: cell-based
HCT-116 [11] = assay: Induction of molecular glue effect mediated DNMT1 degradation in human HCT-116 cells assessed as reduction in DNMT1 protein level at 100 nM preincubated with TAK-243 for 2 hrs followed by compound addition and measured after 24 hrs by Western blot analysis; type: cell-based
HCT-116 [12] = assay: Induction of molecular glue effect mediated DNMT1 degradation in human HCT-116 cells assessed as reduction in DNMT1 protein level at 100 nM preincubated with heclin for 2 hrs followed by compound addition and measured after 24 hrs by Western blot analysis; type: cell-based
HCT-116 [13] = assay: Induction of molecular glue effect mediated DNMT1 degradation in human HCT-116 cells transfected with UHRF1 siRNA assessed as reduction in DNMT1 protein level at 100 nM measured after 24 hrs by Western blot analysis; type: cell-based

With CCc1c(C#N)c(SC(C(N)=O)c2ccccc2)nc(N(C)CC(=O)NC)c1C#N (stereo not drawn) the Activity (HCT-116 [1]) was 100%, the Activity (MDA-MB-468 [2]) was “inactive” and the “inhibition (INH)” value (MDA-MB-468 [3]) was less than 50%. It also gave an inhibition [4] of less than 20%, an inhibition [5] of less than 20% and an inhibition [6] of less than 20%. For the same compound, the inhibition [7] was less than 20%, the inhibition [8] was less than 20% and the Activity (HCT-116 [9]) was “inactive”. For the same compound, the Activity (HCT-116 [10]) was “Active”, the Activity (HCT-116 [11]) was “inactive” and the Activity (HCT-116 [12]) was “Not active; Partial Rescue Of Degradation Observed”. The Activity (HCT-116 [13]) was “Not active; Partial Rescue Of Degradation Observed”.
